How the values were obtained:
[1] = target: Mitogen-activated protein kinase kinase kinase kinase 5 (Homo sapiens) (UniProt Q9Y4K4); conditions: Compound concentration 1000.0 nM
[2] = target: Activin receptor type-1-like (Homo sapiens) (UniProt P37023); conditions: Compound concentration 1000.0 nM
[3] = target: Tyrosine-protein kinase receptor Tie-1 (Homo sapiens) (UniProt P35590); conditions: Compound concentration 1000.0 nM
[4] = target: Interleukin-1 receptor-associated kinase 3 (Homo sapiens) (UniProt Q9Y616); conditions: Compound concentration 1000.0 nM
[5] = target: Mitogen-activated protein kinase kinase kinase 19 (Homo sapiens) (UniProt Q56UN5); conditions: Compound concentration 1000.0 nM
[6] = test system: ALK tyrosine kinase receptor (Homo sapiens), Q9UM73 [L1196M]; conditions: Compound concentration 1000.0 nM
[7] = target: Non-receptor tyrosine-protein kinase TNK1 (Homo sapiens) (UniProt Q13470); conditions: Compound concentration 1000.0 nM
[8] = target: Sodium-dependent noradrenaline transporter (Homo sapiens) (UniProt P23975); conditions: Compound concentration 10.0 uM
[9] = target: Serine/threonine-protein kinase RIO1 (Homo sapiens) (UniProt Q9BRS2); conditions: Compound concentration 1000.0 nM
[10] = target: Mitogen-activated protein kinase kinase kinase 5 (Homo sapiens) (UniProt Q99683); conditions: Compound concentration 1000.0 nM
Mitogen-activated protein kinase kinase kinase 5 (Homo sapiens), sequence (Q99683 whole entry, canonical isoform): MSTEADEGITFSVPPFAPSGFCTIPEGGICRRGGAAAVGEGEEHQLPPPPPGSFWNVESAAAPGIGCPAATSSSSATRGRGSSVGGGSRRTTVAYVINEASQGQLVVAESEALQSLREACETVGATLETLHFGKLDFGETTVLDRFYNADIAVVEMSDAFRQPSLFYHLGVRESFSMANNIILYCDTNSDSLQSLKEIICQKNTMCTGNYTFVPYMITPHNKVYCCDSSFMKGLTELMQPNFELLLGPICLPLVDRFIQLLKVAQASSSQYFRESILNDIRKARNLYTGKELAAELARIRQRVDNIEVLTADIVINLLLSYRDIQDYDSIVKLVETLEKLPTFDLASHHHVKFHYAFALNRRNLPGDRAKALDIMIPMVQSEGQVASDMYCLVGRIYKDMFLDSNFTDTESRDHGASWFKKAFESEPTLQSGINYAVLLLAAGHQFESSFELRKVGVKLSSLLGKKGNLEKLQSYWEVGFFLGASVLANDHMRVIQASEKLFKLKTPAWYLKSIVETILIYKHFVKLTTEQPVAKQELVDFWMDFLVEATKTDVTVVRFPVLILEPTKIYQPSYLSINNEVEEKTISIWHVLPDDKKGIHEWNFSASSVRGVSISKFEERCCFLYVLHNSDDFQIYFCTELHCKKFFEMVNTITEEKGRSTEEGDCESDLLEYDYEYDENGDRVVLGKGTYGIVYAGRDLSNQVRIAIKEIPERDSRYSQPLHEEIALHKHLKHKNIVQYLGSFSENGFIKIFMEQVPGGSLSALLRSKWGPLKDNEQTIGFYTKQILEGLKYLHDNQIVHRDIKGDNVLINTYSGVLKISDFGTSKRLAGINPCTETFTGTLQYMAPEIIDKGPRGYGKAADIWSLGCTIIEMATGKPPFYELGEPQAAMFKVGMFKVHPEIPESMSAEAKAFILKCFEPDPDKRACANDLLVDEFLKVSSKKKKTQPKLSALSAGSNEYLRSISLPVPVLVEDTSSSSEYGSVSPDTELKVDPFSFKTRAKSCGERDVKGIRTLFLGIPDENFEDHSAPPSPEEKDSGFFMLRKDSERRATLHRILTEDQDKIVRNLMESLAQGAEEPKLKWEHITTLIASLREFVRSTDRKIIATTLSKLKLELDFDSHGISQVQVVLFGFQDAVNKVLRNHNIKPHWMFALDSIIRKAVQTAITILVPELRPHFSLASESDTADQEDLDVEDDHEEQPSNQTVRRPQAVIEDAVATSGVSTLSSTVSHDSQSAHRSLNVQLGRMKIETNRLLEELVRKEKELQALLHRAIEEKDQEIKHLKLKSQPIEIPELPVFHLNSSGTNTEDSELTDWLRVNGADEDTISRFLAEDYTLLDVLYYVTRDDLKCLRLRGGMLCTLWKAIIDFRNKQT

[11] = test system: Phosphatidylinositol 4,5-bisphosphate 3-kinase catalytic subunit alpha isoform (Homo sapiens), P42336 [E542K]; conditions: Compound concentration 1000.0 nM
[12] = target: Cyclin-dependent kinase 11B (Homo sapiens) (UniProt P21127); conditions: Compound concentration 1000.0 nM
[13] = target: Tyrosine-protein kinase JAK3 (Homo sapiens) (UniProt P52333); conditions: Compound concentration 1000.0 nM
[14] = target: Serine/threonine-protein kinase LATS1 (Homo sapiens) (UniProt O95835); conditions: Compound concentration 1000.0 nM
[15] = target: Vascular endothelial growth factor receptor 1 (Homo sapiens) (UniProt P17948); conditions: Compound concentration 1000.0 nM
[16] = target: Ephrin type-A receptor 1 (Homo sapiens) (UniProt P21709); conditions: Compound concentration 1000.0 nM
[17] = test system: Tyrosine-protein kinase ABL1 (Homo sapiens), P00519 [H396P]; conditions: Compound concentration 1000.0 nM
[18] = target: Inhibitor of nuclear factor kappa-B kinase subunit alpha (Homo sapiens) (UniProt O15111); conditions: Compound concentration 1000.0 nM
[19] = target: Serine/threonine-protein kinase PAK 5 (Homo sapiens) (UniProt Q9P286); conditions: Compound concentration 1000.0 nM
[20] = target: Serine/threonine-protein kinase ULK1 (Homo sapiens) (UniProt O75385); conditions: Compound concentration 1000.0 nM
[21] = target: Mitogen-activated protein kinase kinase kinase 6 (Homo sapiens) (UniProt O95382); conditions: Compound concentration 1000.0 nM
[22] = target: Activin receptor type-1B (Homo sapiens) (UniProt P36896); conditions: Compound concentration 1000.0 nM
[23] = target: Serine/threonine-protein kinase LATS2 (Homo sapiens) (UniProt Q9NRM7); conditions: Compound concentration 1000.0 nM
[24] = test system: eIF-2-alpha kinase GCN2 (Homo sapiens), Q9P2K8 [S808G]; conditions: Compound concentration 1000.0 nM
eIF-2-alpha kinase GCN2 (Homo sapiens), Q9P2K8 [S808G], sequence (Q9P2K8 whole entry S808G): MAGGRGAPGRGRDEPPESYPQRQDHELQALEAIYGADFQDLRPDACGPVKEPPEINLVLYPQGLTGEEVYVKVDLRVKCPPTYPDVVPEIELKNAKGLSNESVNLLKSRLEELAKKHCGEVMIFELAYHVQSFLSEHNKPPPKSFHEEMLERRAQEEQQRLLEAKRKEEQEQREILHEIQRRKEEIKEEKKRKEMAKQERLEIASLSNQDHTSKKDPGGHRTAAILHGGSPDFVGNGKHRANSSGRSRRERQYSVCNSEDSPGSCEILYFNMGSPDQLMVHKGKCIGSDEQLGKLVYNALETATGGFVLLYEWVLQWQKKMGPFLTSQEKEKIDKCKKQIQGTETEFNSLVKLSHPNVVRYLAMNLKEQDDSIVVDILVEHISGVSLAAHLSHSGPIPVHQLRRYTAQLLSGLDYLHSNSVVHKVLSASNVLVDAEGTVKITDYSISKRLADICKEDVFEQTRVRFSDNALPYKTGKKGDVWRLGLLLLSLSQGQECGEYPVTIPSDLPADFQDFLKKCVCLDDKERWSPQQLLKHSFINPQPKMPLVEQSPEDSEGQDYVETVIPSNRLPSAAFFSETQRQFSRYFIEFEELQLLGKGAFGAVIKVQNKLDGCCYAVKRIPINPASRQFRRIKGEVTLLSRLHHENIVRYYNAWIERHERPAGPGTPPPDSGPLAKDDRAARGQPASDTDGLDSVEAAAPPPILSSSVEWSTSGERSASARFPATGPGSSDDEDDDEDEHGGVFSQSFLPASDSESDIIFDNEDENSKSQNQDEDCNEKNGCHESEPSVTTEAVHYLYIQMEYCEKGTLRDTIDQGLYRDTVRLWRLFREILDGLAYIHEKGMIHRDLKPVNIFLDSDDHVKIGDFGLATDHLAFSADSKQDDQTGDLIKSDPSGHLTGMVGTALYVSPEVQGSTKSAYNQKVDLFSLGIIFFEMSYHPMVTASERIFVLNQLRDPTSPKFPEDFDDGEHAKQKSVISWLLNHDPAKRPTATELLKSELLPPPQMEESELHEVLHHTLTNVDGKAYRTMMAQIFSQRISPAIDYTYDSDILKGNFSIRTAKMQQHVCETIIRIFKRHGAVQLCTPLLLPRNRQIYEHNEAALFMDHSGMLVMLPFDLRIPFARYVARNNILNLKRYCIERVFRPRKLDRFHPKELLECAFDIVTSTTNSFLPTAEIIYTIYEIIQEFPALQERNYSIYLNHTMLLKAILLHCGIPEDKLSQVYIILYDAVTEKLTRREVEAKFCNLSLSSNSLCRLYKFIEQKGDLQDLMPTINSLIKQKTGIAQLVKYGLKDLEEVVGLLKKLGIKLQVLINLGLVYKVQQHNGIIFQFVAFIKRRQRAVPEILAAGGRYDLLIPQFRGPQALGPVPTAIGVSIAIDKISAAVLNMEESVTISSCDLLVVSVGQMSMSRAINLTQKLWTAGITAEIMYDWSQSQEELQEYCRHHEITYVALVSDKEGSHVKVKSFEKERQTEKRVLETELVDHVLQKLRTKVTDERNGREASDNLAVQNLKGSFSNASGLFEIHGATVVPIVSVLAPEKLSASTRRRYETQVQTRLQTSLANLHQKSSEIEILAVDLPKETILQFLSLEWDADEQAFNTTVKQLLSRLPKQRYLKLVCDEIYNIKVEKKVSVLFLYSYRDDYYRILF

[25] = target: Cyclin-dependent kinase 4 (Homo sapiens) (UniProt P11802); conditions: Compound concentration 1000.0 nM
Cyclin-dependent kinase 4 (Homo sapiens), sequence (P11802 whole entry): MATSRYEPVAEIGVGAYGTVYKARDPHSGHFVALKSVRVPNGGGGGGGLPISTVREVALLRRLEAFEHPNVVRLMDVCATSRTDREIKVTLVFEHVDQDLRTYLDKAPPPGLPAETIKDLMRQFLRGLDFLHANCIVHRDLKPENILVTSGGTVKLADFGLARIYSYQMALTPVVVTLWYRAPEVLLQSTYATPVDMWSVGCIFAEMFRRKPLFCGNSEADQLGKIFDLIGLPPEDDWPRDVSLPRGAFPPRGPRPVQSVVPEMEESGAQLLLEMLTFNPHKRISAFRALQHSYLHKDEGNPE

[26] = target: Serine/threonine-protein kinase MARK1 (Homo sapiens) (UniProt Q9P0L2); conditions: Compound concentration 1000.0 nM
[27] = target: Serine/threonine-protein kinase PLK4 (Homo sapiens) (UniProt O00444); conditions: Compound concentration 1000.0 nM
[28] = target: Uncharacterized serine/threonine-protein kinase SBK3 (Homo sapiens) (UniProt P0C264); conditions: Compound concentration 1000.0 nM
Uncharacterized serine/threonine-protein kinase SBK3 (Homo sapiens), sequence (P0C264 whole entry, canonical isoform): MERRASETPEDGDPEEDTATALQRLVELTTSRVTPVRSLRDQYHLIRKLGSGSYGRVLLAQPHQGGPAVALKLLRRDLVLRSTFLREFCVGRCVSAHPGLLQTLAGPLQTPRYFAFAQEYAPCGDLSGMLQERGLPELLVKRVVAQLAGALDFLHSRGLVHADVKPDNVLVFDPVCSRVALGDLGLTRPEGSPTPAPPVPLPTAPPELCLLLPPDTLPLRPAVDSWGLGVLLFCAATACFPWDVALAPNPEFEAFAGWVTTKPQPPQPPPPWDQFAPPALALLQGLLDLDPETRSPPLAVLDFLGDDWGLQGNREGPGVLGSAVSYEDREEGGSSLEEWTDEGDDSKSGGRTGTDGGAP

[29] = test system: Phosphatidylinositol 4,5-bisphosphate 3-kinase catalytic subunit alpha isoform (Homo sapiens), P42336 [M1043I]; conditions: Compound concentration 1000.0 nM
[30] = test system: Receptor-type tyrosine-protein kinase FLT3 (Homo sapiens), P36888 [D835H]; conditions: Compound concentration 1000.0 nM
[31] = target: 5-hydroxytryptamine receptor 2C (Homo sapiens) (UniProt P28335); conditions: Compound concentration 10.0 uM
[32] = target: Ribosomal protein S6 kinase alpha-2 (Homo sapiens) (UniProt Q15349); conditions: Compound concentration 1000.0 nM
[33] = target: Sigma intracellular receptor 2 (Homo sapiens) (UniProt Q5BJF2); conditions: Compound concentration 10.0 uM
Sigma intracellular receptor 2 (Homo sapiens), sequence (Q5BJF2 whole entry): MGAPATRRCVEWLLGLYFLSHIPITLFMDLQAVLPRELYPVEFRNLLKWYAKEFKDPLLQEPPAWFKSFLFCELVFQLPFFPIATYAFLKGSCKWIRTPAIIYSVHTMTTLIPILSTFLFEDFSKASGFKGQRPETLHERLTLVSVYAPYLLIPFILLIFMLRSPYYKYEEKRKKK

[34] = target: Protein kinase C iota type (Homo sapiens) (UniProt P41743); conditions: Compound concentration 1000.0 nM
[35] = target: Dual serine/threonine and tyrosine protein kinase (Homo sapiens) (UniProt Q6XUX3); conditions: Compound concentration 1000.0 nM
[36] = target: T1, Muscarinic acetylcholine receptor M2 (Homo sapiens) (UniProt P08172); conditions: Compound concentration 10.0 uM
T1 sequence (whole entry): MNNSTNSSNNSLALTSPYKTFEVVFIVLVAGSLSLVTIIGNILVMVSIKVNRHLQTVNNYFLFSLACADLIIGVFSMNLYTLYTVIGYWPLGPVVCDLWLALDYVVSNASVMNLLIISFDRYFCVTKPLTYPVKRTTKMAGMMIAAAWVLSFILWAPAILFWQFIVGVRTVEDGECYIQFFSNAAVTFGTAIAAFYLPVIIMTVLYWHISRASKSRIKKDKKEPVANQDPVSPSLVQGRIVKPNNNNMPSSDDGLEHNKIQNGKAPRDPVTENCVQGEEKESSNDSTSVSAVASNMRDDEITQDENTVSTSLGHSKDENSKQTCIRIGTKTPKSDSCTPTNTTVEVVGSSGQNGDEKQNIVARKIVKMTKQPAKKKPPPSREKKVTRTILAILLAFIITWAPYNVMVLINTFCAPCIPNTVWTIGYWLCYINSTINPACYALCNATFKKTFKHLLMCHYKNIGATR

[37] = target: NT-3 growth factor receptor (Homo sapiens) (UniProt Q16288); conditions: Compound concentration 1000.0 nM
[38] = target: Rho-associated protein kinase 1 (Homo sapiens) (UniProt Q13464); conditions: Compound concentration 1000.0 nM

Tyrosine-protein kinase receptor Tie-1 (Homo sapiens), sequence (P35590 whole entry): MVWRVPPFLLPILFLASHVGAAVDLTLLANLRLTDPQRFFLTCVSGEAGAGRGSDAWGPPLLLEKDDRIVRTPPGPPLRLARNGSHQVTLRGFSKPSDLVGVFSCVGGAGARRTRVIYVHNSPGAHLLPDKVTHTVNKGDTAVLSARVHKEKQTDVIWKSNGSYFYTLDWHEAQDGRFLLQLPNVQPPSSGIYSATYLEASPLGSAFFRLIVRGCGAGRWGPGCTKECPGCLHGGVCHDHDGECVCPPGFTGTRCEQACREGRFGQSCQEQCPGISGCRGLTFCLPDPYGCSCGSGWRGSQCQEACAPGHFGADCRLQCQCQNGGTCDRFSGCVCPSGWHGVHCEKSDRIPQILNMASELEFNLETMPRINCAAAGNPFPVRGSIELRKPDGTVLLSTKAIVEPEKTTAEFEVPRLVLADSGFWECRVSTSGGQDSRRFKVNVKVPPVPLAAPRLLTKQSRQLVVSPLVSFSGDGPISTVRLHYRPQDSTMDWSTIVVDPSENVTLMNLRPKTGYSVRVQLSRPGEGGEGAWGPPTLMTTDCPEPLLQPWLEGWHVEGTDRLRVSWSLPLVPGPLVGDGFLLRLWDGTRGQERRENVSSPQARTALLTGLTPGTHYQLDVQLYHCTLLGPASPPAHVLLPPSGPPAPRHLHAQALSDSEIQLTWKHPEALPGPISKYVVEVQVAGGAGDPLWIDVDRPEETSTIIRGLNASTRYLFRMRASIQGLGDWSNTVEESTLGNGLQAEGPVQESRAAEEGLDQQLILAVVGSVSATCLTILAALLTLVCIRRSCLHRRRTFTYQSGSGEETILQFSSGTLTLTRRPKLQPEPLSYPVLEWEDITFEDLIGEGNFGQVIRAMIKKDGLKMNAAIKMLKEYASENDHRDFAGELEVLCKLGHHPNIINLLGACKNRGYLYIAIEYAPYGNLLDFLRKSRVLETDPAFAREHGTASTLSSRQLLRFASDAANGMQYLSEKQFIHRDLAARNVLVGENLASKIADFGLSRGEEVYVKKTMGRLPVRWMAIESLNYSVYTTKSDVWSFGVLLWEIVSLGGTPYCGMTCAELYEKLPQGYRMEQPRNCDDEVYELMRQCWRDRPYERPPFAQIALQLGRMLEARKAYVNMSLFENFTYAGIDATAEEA

Row | SMILES | residual activity [1] [%] | residual activity [2] [%] | residual activity [3] [%] | residual activity [4] [%] | residual activity [5] [%] | residual activity [6] [%] | residual activity [7] [%] | inhibition [8] [%] | residual activity [9] [%] | residual activity [10] [%] | residual activity [11] [%] | residual activity [12] [%] | residual activity [13] [%] | residual activity [14] [%] | residual activity [15] [%] | residual activity [16] [%] | residual activity [17] [%] | residual activity [18] [%] | residual activity [19] [%] | residual activity [20] [%] | other results
1 | CC(=O)N1CCC(c2ccc(C(=O)NC(=N)N)cc2C(F)(F)F)CC1 [BI 9627] | 100 | 100 | 100 | 99 | 100 | 96 | 89 | 28.6 | 100 | 100 | 82 | 100 | 100 | 72 | 100 | 100 | 86 | 100 | 100 | 100 | residual activity [21]: 86%; residual activity [22]: 93%; residual activity [23]: 100%; residual activity [24]: 73%; residual activity [25]: 100%; residual activity [26]: 100%; residual activity [27]: 100%; residual activity [28]: 100%; residual activity [29]: 100%; residual activity [30]: 96%; inhibition [31]: 2.59%; residual activity [32]: 97%; inhibition [33]: -6.34%; residual activity [34]: 100%; residual activity [35]: 94%; inhibition [36]: 23.5%; residual activity [37]: 100%; residual activity [38]: 87%
2 | CC(=O)N1CCC(c2ccc(C(=O)NC3=NCCN3)cc2C(F)(F)F)CC1 [BI 0054] | 100 | 100 | 82 | 100 | 100 | 70 | 84 | 21.5 | 100 | 100 | 100 | 92 | 100 | 93 | 100 | 88 | 100 | 90 | 87 | 85 | residual activity [21]: 93%; residual activity [22]: 100%; residual activity [23]: 91%; residual activity [24]: 52%; residual activity [25]: 98%; residual activity [26]: 100%; residual activity [27]: 100%; residual activity [28]: 100%; residual activity [29]: 100%; residual activity [30]: 93%; inhibition [31]: -2.86%; residual activity [32]: 83%; inhibition [33]: -0.12%; residual activity [34]: 83%; residual activity [35]: 74%; inhibition [36]: -0.799%; residual activity [37]: 100%; residual activity [38]: 0.5%
